In paper PMC11213934, “Allosteric modulators of M1 muscarinic receptors enhance acetylcholine efficacy and decrease locomotor activity and turning behaviors in zebrafish” (Scientific Reports, 2024):
Marks after values point to notes of the source that are not given here.

Assays:
[1] = system: wild-type (AB) zebrafish (Danio rerio); test: animal or person; assay type: in vivo; conditions: for Distance moved / Variance turn angle: compound at 10 µM relative to controls, mean ± s.e.m., N = 12; for MEC: locomotor behaviors
Procedure: (§1) Larval zebrafish were produced in the University of Toledo zebrafish core facility and housed in an incubator maintained at 28 °C on a 14:10 h cycle. Fish were acclimated to the testing room conditions the evening prior to testing. All testing took place during the 14 h light cycle after the lights had been on for at least 2 h.
The movement of larval zebrafish was monitored with the Noldus behavior recording system (Noldus Information Technology, Leesburg VA) and quantified using EthoVision® XT 15 software (Noldus Information Technology, Leesburg VA). Five-dpf zebrafish larvae were exposed to a range of nonlethal concentrations of compounds in a 24-well plate with appropriate controls. The plate was immediately placed in the incubator for a 30-min exposure period. After 30 min, the plate was transferred to the Noldus system and swimming behavior was recorded in 100% light for 30 min to measure spontaneous swimming behavior. The light was switched off for 10 min (dark period) and then switched on for 10 min (light period), which was then repeated for two additional cycles. In total, the larvae were exposed to three cycles of alternating 10 min dark and light periods (100% darkness-to-100% light). Each drug challenge was conducted on three separate plates with n = 6 larvae/dose/plate.
Absolute turn angle (TA) and angular velocity provided measures of the extent of turning behavior, while the intra-individual variance of turn angle quantified how consistently (low variance) or inconsistently (high variance) fish turned. A lowered intra-individual variance of turning reflected repeatedly performing the same turning behavior, a stereotypy.
All data for exposure and the behavioral end points were analyzed by one-way ANOVA (factor: drug concentration) followed by a Dunnett’s multiple comparisons test for post hoc significance between drug concentration and control group. Statistically significant differences are noted as follows; *p < 0.05; **p < 0.01; ***p < 0.001.

[2] = system: wild-type (AB) zebrafish (Danio rerio); assay type: in vivo; conditions: compound at 10 µM relative to controls; mean ± s.e.m., N = 12
[3] = target: T1, human M1 muscarinic receptors (Homo sapiens, UniProt P11229); test: [3H]-arachidonic acid release in CHO cells expressing M1 receptors, with and without ACh (single modulator concentration, four-parameter curves); assay type: cell-based; design: expressed in transfected cells; host or cells: CHO cells stably transfected with hM1, obtained from Mark Brann's laboratory (NIH); conditions: for 0.1 µM ACh: response with modulator present divided by response to ACh alone / 100 µM ACh: response with modulator present divided by response to ACh alone / No ACh: agonist effect of the allosteric ligand by itself, fraction of the maximal response that could be elicited by ACh: modulator 10 µM, CHO-hM1, mean ± s.e.m.; for No ACh: agonist effect of the allosteric ligand by itself, fraction of the maximal response that could be elicited by ACh: at least 4 determinations; for Effect on M1 receptor activity and ACh response, in words: modulators at 10 µM (amiodarone 30 µM)
T1 sequence (P11229 1-460): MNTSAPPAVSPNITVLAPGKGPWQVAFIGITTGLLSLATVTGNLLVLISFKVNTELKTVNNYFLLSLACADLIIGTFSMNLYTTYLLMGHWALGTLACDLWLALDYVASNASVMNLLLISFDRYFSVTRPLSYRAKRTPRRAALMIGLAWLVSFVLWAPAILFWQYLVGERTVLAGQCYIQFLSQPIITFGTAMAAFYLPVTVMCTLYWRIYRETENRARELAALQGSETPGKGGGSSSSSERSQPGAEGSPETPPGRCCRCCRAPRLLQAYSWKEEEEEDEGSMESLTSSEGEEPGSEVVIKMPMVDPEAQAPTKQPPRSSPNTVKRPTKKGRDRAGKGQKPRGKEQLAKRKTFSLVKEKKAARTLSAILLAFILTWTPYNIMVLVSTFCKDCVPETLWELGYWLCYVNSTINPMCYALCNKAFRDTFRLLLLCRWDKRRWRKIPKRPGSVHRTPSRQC
Procedure: CHO cells expressing human M1 muscarinic receptors were cultured at 37 °C in a 5% CO2 atmosphere in F12 medium supplemented with 5% fetal bovine serum, 100 units/ml penicillin, and 100 µg/ml streptomycin. These cells were obtained from Mark Brann’s laboratory when they were at NIH and have been in use by us and others for many years.
Measurement of [^3H]AA release was performed as described in Stahl and Ellis[24]. Stably transfected CHO-hM1 cells were seeded on 24-well plates (Greiner Bio-One GmbH, Frickenhausen, Germany) at a density of 5.0 × 10^4 cells/well in 0.5 ml of F-12 medium. Cells were incubated until they attached (approximately 3 h), followed by the addition of [^3H]AA to a final concentration of 0.05 μCi of [^3H]AA per well. The cells were then grown for 16 to 20 h before the assay was performed. [^3H]AA release was measured in Eagle’s basal medium with 20 mM HEPES and 2 mg/ml fatty acid-free bovine serum albumin (EM-BSA). Cells were rinsed twice with EM-BSA, followed by the addition of EM-BSA media containing experimental agents and incubated for 1 h at 37 °C. The assay was terminated by aspiration of the media, and the amount of [^3H]AA released was determined by liquid scintillation counting (Beckman-Coulter LS6500).
Where indicated (Fig. 2), cells were pretreated with POB to reduce the number of available receptors per cell. Stock POB was made up at 10 mM in ethanol and stored at −20C. Each well was pretreated with 0.5 ml of the appropriate concentration in PBS with 1 mM CaCl2 and 1 mM MgCl2 (PBS+ +) for 30 min at 37 °C, followed by 5 washes with PBS+ + . After pretreatment, the normal protocol follows as above.
Tabulated [^3H]AA release data are represented as a fraction of maximal release elicited by ACh or as the fraction of release elicited by the relevant concentration of ACh alone, as indicated. Dose-response curves were normalized to the maximal response of ACh without allosteric ligand. Where indicated, response curves were analyzed using the empirical four-parameter equation: Y=Top+Bottom-Top/1+X/C50^n where X is the concentration of the ligand used, Y is the amount of response, C50 is the concentration of the ligand that produces 50% of the maximal effect, Top and Bottom are the top and bottom plateaus of the curve, and n is related to the Hill slope for the curve. Where indicated, families of response curves were analyzed according to an allosteric operational model[50],[51]: Y=EM[τAA(KB+αβB)+τBBKA]/[τAA(KB+αβB)+τBBKA+AKB+KAKB+KAB+αAB] where EM is the maximal response; A is the concentration of ACh; B is the concentration of the allosteric ligand; τA and τB represent the operational efficacies of A and B, respectively; KA and KB are the equilibrium dissociation constants of A and B; and α and β represent the cooperativities between A and B in terms of binding and activation, respectively. Curve-fitting was carried out with GraphPad Prism, version 5.0 or 6.0 (San Diego CA).

[4] = system: wild-type (AB) zebrafish (Danio rerio); test: Maximum tolerated concentration (MTC) determination in larval zebrafish; assay type: in vivo; conditions: after 24 h exposure; 5 dpf larvae
Procedure: as §1
Determination of maximum tolerated concentration (adapted from Berghmans)[52] was completed by placing 5 days post fertilization (dpf) wild-type zebrafish larvae in a 24 well plate at 6 fish per well, and one compound concentration per well. […] Death was determined by the absence of heartbeat. Additional endpoints were used to assess toxicity at non-lethal concentrations such as startle capacity (poke stimulus), abnormalities in swimming behavior (loss of dorsoventral balance), and gross morphological deformities (bent body). […] The MTC determination was used to select three doses of each compound (low, medium, high dose) to be used in behavioral assays.

| Compound | Distance moved [1] | Variance turn angle [1] | MEC [1] | Angular velocity [2] | 0.1 µM ACh: response with modulator present divided by response to ACh alone [3] | 100 µM ACh: response with modulator present divided by response to ACh alone [3] | No ACh: agonist effect of the allosteric ligand by itself, fraction of the maximal response that could be elicited by ACh [3] | Effect on M1 receptor activity and ACh response, in words [3] | MTC (maximum tolerated concentration) [4] | Therap. index [1] |
| --- | --- | --- | --- | --- | --- | --- | --- | --- | --- | --- |
| CCCCc1oc2ccccc2c1C(=O)c1ccc(OC)cc1 [Compound 6a, (2-butylbenzofuran-3-yl)(4-methoxyphenyl)methanone] | 115.4 ± 11.7% | 115.8 ± 13.0% | > 3 µM | 95.9 ± 13.3% | 1.37 ± 0.07 | 1.06 ± 0.04 | 0.05 ± 0.01 | inactive | 3 µM |  |
| CCCCc1oc2ccccc2c1C(=O)c1cc(I)c(OC)c(I)c1 [Compound 6b, (2-butylbenzofuran-3-yl)(3,5-diiodo-4-methoxyphenyl)methanone] | 75.3 ± 8.5* % | 133.7 ± 14.0* % | > 30 µM | 132.3 ± 16.9% | 1.78 ± 0.12 | 1.36 ± 0.07 | 0.08 ± 0.02 | increased ACh activity | 30 µM |  |
| CCCCc1oc2ccccc2c1C(=O)c1ccc(OCCN(CC)CC)cc1 [Compound 6c, (2-butylbenzofuran-3-yl)(4-(2-(diethylamino)ethoxy)phenyl)methanone] | 59.8 ± 8.8% | 136.4 ± 11.8% | 0.1 µM | 129.9 ± 20.1% | 0.40 ± 0.11 | 1.04 ± 0.05 | 0.04 ± 0.01 | decreased ACh activity | 3 µM | 30 |
| COc1ccc(CN2C(=O)C(=O)c3ccccc32)cc1I [Compound 8b, 1-(3-iodo-4-methoxybenzyl)indoline-2,3-dione] | 52.7 ± 6.6*** % | 143.0 ± 13.5** % | 1 µM | 175.3 ± 19.0 % | 2.13 ± 0.08 | 1.24 ± 0.01 | 0.08 ± 0.01 |  | 10 µM | 10 |
| COc1ccc(CN2C(=O)C(=O)c3ccccc32)cc1Br [Compound 8d, 1-(3-bromo-4-methoxybenzyl)indoline-2,3-dione] | 38.4 ± 4.5*** % | 170.2 ± 15.1*** % | 1 µM | 201.4 ± 27.5 % | 1.57 ± 0.06 | 0.90 ± 0.03 | 0.04 ± 0.01 |  | 100 µM | 100 |
| COc1c(Cl)cc(CN2C(=O)C(=O)c3ccccc32)cc1Cl [Compound 8e, 1-(3,5-dichloro-4-methoxybenzyl)indoline-2,3-dione] | 29.1 ± 5.3*** % | 158.8 ± 14.3*** % | 1 µM | 222.1 ± 25.0 % | 2.29 ± 0.14 | 1.21 ± 0.07 | 0.13 ± 0.04 |  | 100 µM | 100 |
| COc1ccc(CN2C(=O)C(=O)c3ccccc32)cc1Cl [Compound 8f, 1-(3-chloro-4-methoxybenzyl)indoline-2,3-dione] | 37.4 ± 6.4*** % | 127.9 ± 16.2% | 3 µM | 157.1 ± 24.5 % | 1.67 ± 0.12 | 1.08 ± 0.06 | 0.09 ± 0.04 |  | 10 µM | 3.3 |
| COc1c(F)cc(CN2C(=O)C(=O)c3ccccc32)cc1F [Compound 8g, 1-(3,5-difluoro-4-methoxybenzyl)indoline-2,3-dione] | 65.7 ± 11.7*** % | 126.5 ± 10.4* % | 1 µM | 144.5 ± 18.6 % | 1.41 ± 0.13 | 0.95 ± 0.05 | 0.03 ± 0.01 |  | 30 µM | 30 |
